As usually defined, the IC50 is the concentration that inhibits the measured activity by half. One may read the melting point as the temperature of the solid-liquid transition.

These results are taken from paper PMC9697826 (Pharmaceuticals, 2022).

For data set [1], the target named is T1, FABP4 (Homo sapiens, UniProt P15090).
T1 construct: purchased Cayman Chemical 10010231
The data set is described as follows: FABP4 Inhibitor/Ligand Screening Assay Kit: displacement of a fluorescent detection reagent. It is filed as binding. The settings on record: for IC50: displacement of detection reagent from FABP4, compounds diluted in PBS pH 7.4, fluorescence em 470 nm, ex 370 nm; for FABP4 inhibitory activity, IC50 in words: summary statement in conclusions.
Experimental: FABP4 inhibitory activity was assessed by measuring the decrease in fluorescent signal of a detection reagent (DR) when displaced by a strong FABP4 ligand. […] Therefore, any effective ligand of the protein, which binds to the same binding pocket and can displace the DR, determines a reduction in the fluorescence read-out. The new molecular series was screened in a two-step procedure. Firstly, a single concentration of 5 µM was used to gain an estimation of the overall inhibitory effect of all the molecules.
To analyze the inhibitory activity of FABP4 ligands, a displacement assay was utilized as described by the Cayman’s instruction, FABP4 Inhibitor/Ligand Screening Assay Kit, Item 10,010,231 (see Supplementary Materials for additional details). The samples of compounds for activity determination were prepared as a stock solution (1 mM) in DMSO. On the day of activity assay, the compounds were all diluted in phosphate buffer solution (PBS, pH 7.4) to different concentrations (100, 50, 10, 5, 2, 1, and 0 µM). Appropriate concentrations of DMSO in PBS were used as control. The detection reagent (FABP Assay Detection Reagent, Item 10010376) was used as provided by the Cayman’s kit. The diluted Detection Reagent probe was mixed with FABP4 protein present in the kit and incubated for 10 min at room temperature. Compounds were then added and equilibrated for another 10 min. Lastly, the fluorescence signal was recorded at 470 nm (i.e., emission, with the excitation fixed at 370 nm) with a CytoFluor® Series 4000 Fluorescence Multi-Well Plate Reader.

Data set [2] relates to colon cancer cells. Details: method as in PMID 33088219. The settings on record: treatment with the FABP4 inhibitor; cited from earlier work.

Bounds are passed on as bounds.

T1 sequence (P15090 whole entry): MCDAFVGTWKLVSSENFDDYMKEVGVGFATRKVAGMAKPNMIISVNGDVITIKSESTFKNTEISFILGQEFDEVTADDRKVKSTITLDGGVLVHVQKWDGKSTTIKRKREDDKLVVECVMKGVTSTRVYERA

In the case of `N#Cc1c(-c2ccccc2)nn(C2CCCCC2)c(=O)c1N` [Compound 22, 5-Amino-1-cyclohexyl-6-oxo-3-phenyl-1,6-dihydropyridazine-4-carbonitrile], the melting point fell in the range of 170 to 172 °C. In addition, in data set [1], the IC50 is 15.2 ± 0.76 µM and the “FABP4 inhibitory activity, IC50 in words” value was “low micromolar range”.

`CCCn1nc(-c2ccccc2)cc(NC(N)=O)c1=O` [Compound 25e, (3-Oxo-6-phenyl-2-propyl-2,3-dihydro-pyridazin-4-yl)urea] had a melting point of 273 to 275 °C. Also, the IC50 in data set [1] was greater than 50 µM.

Regarding `CC(=O)N1CCN(C(=O)c2ccc(Nc3cc(-c4ccccc4)nn(C)c3=O)cc2)CC1` [Compound 35, 4-[4-(4-Acetyl-piperazine-1-carbonyl)-phenylamino]-2-methyl-6-phenylpyridazin-3(2H)-one], the melting point lay in the range of 213 to 215 °C. The IC50 in data set [1] is greater than 50 µM.

For `Cc1cc(NC(N)=O)c(=O)n(-c2ccccc2)n1` [Compound 55, 1-(6-Methyl-3-oxo-2-phenyl-2,3-dihydropyridazin-4-yl)urea], the melting point lay in the range of 288 to 290 °C. The compound further displayed an IC50 in data set [1] greater than 50 µM.

In turn, `CCCNC(=O)c1c(-c2ccccc2)n[nH]c(=O)c1N` [Compound 4b, 5-Amino-6-oxo-3-phenyl-1,6-dihydropyridazine-4-carboxylic acid propylamide] registered a melting point of 228 to 230 °C. Besides, in data set [1], the IC50 was determined as 8.27 ± 0.2 µM and the “FABP4 inhibitory activity, IC50 in words” value is recorded as “low micromolar range”.

Take `CCc1c(-c2ccccc2)c(-c2ccccc2)nn1-c1ccccc1-c1cccc(OCC(=O)O)c1` [BMS309403]: the “migration and invasion of colon cancer cells” value in data set [2] is listed as “weakened”.

`CCn1nc(-c2ccccc2)cc(NC(N)=O)c1=O` [Compound 25c, (2-Ethyl-3-oxo-6-phenyl-2,3-dihydro-pyridazin-4-yl)urea] registered a melting point of 270 to 271 °C. In data set [1], the IC50 is greater than 50 µM.
